How the values were obtained:
[1] = Inhibition of HIV Rev activity; parameters: species or system Human immunodeficiency virus
[2] = Inhibition of nuclear export in human HeLa cells; format: functional, cell-based
HCT-15 [3] = experiment: Anticancer activity against human HCT-15 cells assessed as decrease in invading cells at 1 uM measured after 36 hrs; format: functional
HCT-15 [4] = experiment: Anticancer activity against human HCT-15 cells assessed as decrease in invading cells at 0.5 uM measured after 36 hrs; format: functional
HCT-15 [5] = experiment: Inhibition of colony formation in human HCT-15 cells at 4 uM incubated for 14 days by crystal violet staining based cell clonogenic assay; format: functional; settings: HCT-15, 336 h, time 14 day
HT-29 = experiment: Antiproliferative activity against human HT-29 cells assessed as cell viability measured after 3 hrs by CCK-8 assay; format: functional, cell-based; settings: HT-29, 3 h
HCT-15 [6] = experiment: Antiproliferative activity against human HCT-15 cells assessed as cell viability measured after 3 hrs by CCK-8 assay; format: functional, cell-based; settings: HCT-15, 3 h
HCT-15 [7] = experiment: Inhibition of colony formation in human HCT-15 cells at 2 uM incubated for 14 days by crystal violet staining based cell clonogenic assay; format: functional; settings: HCT-15, 336 h, time 14 day
HCT-15 [8] = experiment: Inhibition of colony formation in human HCT-15 cells at 1 uM incubated for 14 days by crystal violet staining based cell clonogenic assay; format: functional; settings: HCT-15, 336 h, time 14 day
HCT-15 [9] = experiment: Antitumor activity against CRM1 knockout human HCT-15 cells; format: functional, cell-based
HCT-15 [10] = experiment: Antitumor activity against wild type human HCT-15 cells; format: functional, cell-based
HeLa = experiment: Growth inhibition of human HeLa cells measured after 48 hrs by MTT assay; format: functional, cell-based
SGC-7901 [11] = experiment: Growth inhibition of human SGC-7901 cells assessed as inhibition rate at 5 uM relative to control; format: functional
SGC-7901 [12] = experiment: Growth inhibition of human SGC-7901 cells assessed as inhibition rate at 50 uM relative to control; format: functional
SGC-7901 [13] = experiment: Growth inhibition of human SGC-7901 cells assessed as inhibition rate at 100 uM relative to control; format: functional
SGC-7901 [14] = experiment: Growth inhibition of human SGC-7901 cells assessed as inhibition rate at 150 uM relative to control; format: functional
SMMC-7721 [15] = experiment: Antitumor activity against human SMMC-7721 cells measured after 12 hrs; format: functional, cell-based; settings: SMMC-7721, 12 h
SMMC-7721 [16] = experiment: Antitumor activity against human SMMC-7721 cells measured after 24 hrs; format: functional, cell-based; settings: SMMC-7721, 24 h
[17] = Cytotoxicity against human L9981 cells assessed as inhibition of tumor growth measured after 72 hrs by MTT assay; format: functional, cell-based; settings: L9981, 72 h
SMMC-7721 [18] = experiment: Antitumor activity against human SMMC-7721 cells measured after 6 hrs; format: functional, cell-based; settings: SMMC-7721, 6 h
[19] = Cytotoxicity against human NL9980 cells assessed as inhibition of tumor growth measured after 72 hrs by MTT assay; format: functional, cell-based; settings: NL9980, 72 h
NSCLC = experiment: Antitumor activity against human NSCLC cells; format: functional, cell-based
SK-N-BE(2) = experiment: Antiproliferative activity against human SK-N-BE(2) cells by CCK-8 assay; format: functional, cell-based; settings: SKNBE2
SH-SY5Y = experiment: Antiproliferative activity against human SH-SY5Y cells by CCK-8 assay; format: functional, cell-based

## CC1=C(COCCC(C)(C)C)C(=O)N(Nc2ccc(C(F)(F)F)c(Cl)n2)C1=O
[1]
  IC50: 5.5 µM

## CC(C)CCNC/C=C/[S+]([O-])c1cc(C(F)(F)F)cc(C(F)(F)F)c1 (stereo not given)
[2]
  EC50: 3.2 µM

## CC1=C(C)C(=O)N(Nc2ccc(Cl)c(Cl)n2)C1=O
HCT-15 [3]
  inhibition at 1 µM: 67%
HCT-15 [4]
  inhibition at 0.5 µM: 44%
HCT-15 [5]
  inhibition at 4 µM: 91.4%
HT-29
  IC50: 0.97 µM
HCT-15 [6]
  IC50: 1.2 µM
HCT-15 [7]
  inhibition at 2 µM: 83.2%
HCT-15 [8]
  inhibition at 1 µM: 58.5%

## [O-][S+](/C=C/CCN=C=S)c1cc(C(F)(F)F)cc(C(F)(F)F)c1 (stereo not given)
HCT-15 [9]
  IC50: 14 µM
HCT-15 [10]
  IC50: 0.151 µM

## COc1cc(/C=C/C(=O)CC(=O)/C=C/c2ccc(O)c(OC)c2)ccc1O [CURCUMIN]
HeLa
  IC50: 32.4 µM

## C=C1C(=O)[C@]23[C@H](O)[C@H]1CC[C@H]2[C@@]12CO[C@]3(O)[C@@H](O)[C@@H]1C(C)(C)CC[C@@H]2O [ORIDONIN]
SGC-7901 [11]
  inhibition at 5 µM: 20%
SGC-7901 [12]
  inhibition at 50 µM: 35%
SGC-7901 [13]
  inhibition at 100 µM: 75%
SGC-7901 [14]
  inhibition at 150 µM: 90%

## COc1cc(/C=C/C(=O)N2CCC=CC2=O)cc(OC)c1OC [PIPLARTINE]
HeLa
  IC50: 16.3 µM

## CC1=CC(=O)c2c(O)cccc2C1=O [PLUMBAGIN]
SMMC-7721 [15]
  IC50: 5.41 µM
SMMC-7721 [16]
  IC50: 2.43 µM
[17]
  IC50: 9 µM
SMMC-7721 [18]
  IC50: 36.1 µM
[19]
  IC50: 7.5 µM

## O=C(/C=C\n1cnc(-c2cc(C(F)(F)F)cc(C(F)(F)F)c2)n1)NNc1cnccn1 [SELINEXOR]
NSCLC
  IC50: 0.025 µM

## O=C(/C=C\n1cnc(-c2cc(C(F)(F)F)cc(C(F)(F)F)c2)n1)NNc1ccccn1 [VERDINEXOR]
SK-N-BE(2)
  IC50: 1.4 µM
SH-SY5Y
  IC50: 0.3 µM
